A short description of data set [1]: Comparative maximum aqueous solubility study (ICP-OES). Type of data set: physicochemical. Conditions: doubly deionized water, 24 h shaking, ambient 18–20°C, mean ± SD of N = 3. As to the method: One to five milligrams of FY26⋅PF6 or FY26⋅I, and 180 mg of FY26⋅Cl were dispensed into Falcon tubes in triplicates, then 1 ml of doubly deionized water (DDIW) was added. The Falcon tubes were placed on a Vibrax VXB basic shaker (Sigma-Aldrich, Dorset, UK) for 24 h at a speed of […] (ambient temperature 18–20°C), and were checked at intervals (further solids were added if total saturation appeared to occur). The samples were filtered through syringe filters (PTFE, 0.45 µm, 4 mm) to remove any undissolved solids. The concentrations of Os in the solutions were measured using inductively coupled plasma-optical emission spectroscopy (ICP-OES) (Agilent, Stockport, UK).
Analyses of FY26 solutions were carried out on a Perkin-Elmer (optical emission spectrometer) Optima 5300 DV instrument. All samples and standards were prepared fresh on the day in DDIW with distilled HNO3 (3.2%), thiourea (5 mM), and ascorbic acid (0.1 g/l). The osmium standard was diluted to the following concentrations for the calibration curve: 0, 25, 50, 100, 200, 400, 600, 800, and 1000 ppb. The samples were diluted by serial dilutions of typically 1 in 10 until their concentrations fitted within the calibration range and % total dissolved solids were below 0.2%. Samples were prepared in triplicates and the Os optical emissions at 228.226 and 225.585 nm were detected and integrated.

Data set [2] concerns A2780 cells. Description: Apoptosis and ROS induction on exposure in A2780 cells. The format is cell-based. Conditions: data not shown.
Data set [3] in a line: Tolerability (survival, body weight) in Hepa1–6-bearing C57Bl/6 mice (Experiments 3 and 4). Type of data set: in vivo. Here is the method: Male CD1-Foxn1^nu or C57Bl/6 (B6) mice aged 5–10 weeks (Janvier, Le Genest St Isle, France) were housed in groups of three to four mice per cage in temperature-controlled (23 ± 1°C), ventilated (100 ± 10 l/min), and light-tight chronobiological animal facilities (Eurobioconcept, Bonneuil s/Marne, France). They were synchronized with an alternation of 12 h of light (L) and 12 h of darkness (D) (LD12:12), with light starting at 07:00, and had ad libitum access to food and water throughout all the experiments. In line with convention, onset of light and that of darkness are referred to as Zeitgeber time 0 (ZT0) and ZT12, respectively. After one or more weeks on this regimen and on the day prior to tumour inoculation, both flanks of each B6 mouse were shaved using clippers.
The mice, aged 8–10 weeks, were anesthetized under isoflurane and Hepa1–6-Per2-luc cells were injected subcutaneously in both postero-lateral flanks of each mouse. Mice were then inspected and weighed daily until experiment completion. Tumour sites were inspected daily until tumours became palpable and amenable to daily measurements of perpendicular diameters using callipers. Measurements were always taken at the same circadian time.
Mean daily tumour weight per mouse was calculated as the average volume of the right and left flank tumours according to (L × W^2)/2, where L is the larger and W the smaller perpendicular diameter, and 1 cm^3 corresponds to 1 g. Mice with an estimated tumour weight exceeding 10% of their body weight or those in poor general condition or loosing >15% of their starting body weight were euthanized, in compliance with our Home Office Project Licence specifications approved by the Animals in Science Committee and Animal Welfare and Ethical Review Body.
Experiment 3 aimed at assessing the efficacy and tolerability of the more soluble formulation of FY26⋅Cl in Hepa1–6-bearing C57Bl/6 mice. The mice were randomized to receive vehicle or FY26⋅Cl, at a cumulative dose of 60 mg/kg. Treated mice received ip injections of 20 mg/kg of FY26⋅Cl at ZT6 12, 14, and 17 days after tumour inoculation. Control mice received ip vehicle on the same days.
Experiment 4 aimed at confirming efficacy and optimizing timing and scheduling of the same cumulative dose of 60 mg/kg of FY26⋅Cl. Mice were randomized to receive either vehicle or FY26⋅Cl as four injections of 15 mg/kg at ZT6 or ZT18 on days 11, 14, 17, and 21.
For Experiments 1 and 2, FY26⋅PF6 was diluted in the vehicle, composed of 1% Tween 80 (Sigma-Aldrich, Gillingham, UK), 5% DMSO (Corning, New York, USA) and 94% of 0.9% saline (Prep room, Life Sciences, University of Warwick) under laminar flow. FY26⋅PF6 concentration was confirmed with ICP-MS. For Experiments 3–5, using FY26⋅Cl, a stock solution of 50 mg/ml FY26⋅Cl was prepared in 0.9% saline on the day of injection and diluted as required; the vehicle consisted of 0.9% saline.
Body weight data were expressed as % body weight measured on the first treatment day. Tumour weights for individually treated mice were expressed as % of the median control values, in order to determine % inhibition. Mean and standard error or median and interquartiles were computed for the different treatment groups and experimental conditions, i.e. drug timing and day of assessment. Groups were compared using parametric or non-parametric ANOVAs, respectively.

Regarding `CN(C)c1ccc(N=Nc2ccccn2)cc1.Cc1ccc(C(C)C)cc1.[Cl-].[I-].[Os+2]` [FY26⋅Cl], in data set [1], the maximum aqueous solubility is 215 (±10) mM. Moreover, in data set [2], the ROS induction result was “did induce an increase in ROS” and the induction of apoptosis entry is given as “did not induce apoptosis”. For the same compound, the “treated mice alive at completion” value in data set [3] (Experiment 4, 15 mg/kg ip × 4, ZT6 and ZT18) is on record as 45%. Besides, in data set [3] (after a cumulative dose of 60 mg/kg), the “loss of body weight before treatment” value is on record as ~10% (±3.2%).

Values taken from paper PMC7853623, “Dose- and time-dependent tolerability and efficacy of organo-osmium complex FY26 and its tissue pharmacokinetics in hepatocarcinoma-bearing mice” (Metallomics: Integrated Biometal Science, 2020).
